Results taken from PubChem BioAssay AID226 (DTP/NCI, 2004).
“And” between values parts separate entries of the source, which are not always exact repeats. Equal values may be shown once. Toxic doses and inconclusive results are not listed. Rule for the calls: active = survival T/C of 150% or more; inactive = T/C below 125% in these data.

System: B6C3F1 mice, intracerebral ependymoblastoma, median survival T/C
Test: NCI In Vivo Anticancer Drug Screen. Data for tumor model Ependymoblastoma (intracerebral) in B6C3F1 mice
Conditions: endpoint: median survival time, higher = longer survival
Experimental: The antitumor activity of compounds was measured in mice bearing transplantable tumors. Survival or tumor size were measured and the results are expressed as the measurement made in the treated group (T) divided by the measurement made in the vehicle treated control group (C). The tumor model used in this assay is Ependymoblastoma (intracerebral) in B6C3F1 mice

Measured: T/C

COC(=O)[C@@]12OC[C@]34[C@H]([C@@H](O)[C@@H]1O)[C@@]1(C)CC(=O)C(O)=C(C)[C@@H]1C[C@H]3OC(=O)[C@H](OC(=O)/C=C(\C)C(C)C)[C@@H]24
inactive: dose: 0.03 mg/kg/injection, schedule: Q01DX005 (ip), vehicle: saline + alcohol 100 % of control and 101 % of control | dose: 0.06 mg/kg/injection, schedule: Q01DX005 (ip), vehicle: saline + alcohol 92 % of control and 97 % of control | dose: 0.12 mg/kg/injection, schedule: Q01DX005 (ip), vehicle: saline + alcohol 98 % of control and 101 % of control | dose: 0.12 mg/kg/injection, schedule: Q01DX005 (oral), vehicle: saline 100 % of control | dose: 0.12 mg/kg/injection, schedule: Q12HX006 (ip), vehicle: saline 109 % of control | dose: 0.25 mg/kg/injection, schedule: Q01DX005 (ip), vehicle: saline + alcohol 95 % of control and 96 % of control | dose: 0.25 mg/kg/injection, schedule: Q12HX002 (ip), vehicle: saline 107 % of control | dose: 0.25 mg/kg/injection, schedule: Q12HX006 (ip), vehicle: saline 116 % of control | dose: 0.5 mg/kg/injection, schedule: Q01DX001 (ip), vehicle: saline 111 % of control and 115 % of control and 116 % of control | dose: 0.5 mg/kg/injection, schedule: Q01DX005 (ip), vehicle: saline + alcohol 92 % of control and 95 % of control | dose: 0.5 mg/kg/injection, schedule: Q01DX005 (oral), vehicle: saline 101 % of control | dose: 0.5 mg/kg/injection, schedule: Q12HX002 (ip), vehicle: saline 107 % of control | dose: 0.5 mg/kg/injection, schedule: Q12HX006 (ip), vehicle: saline 116 % of control | dose: 1.0 mg/kg/injection, schedule: Q01DX001 (ip), vehicle: saline 101 % of control and 110 % of control and 111 % of control | dose: 1.0 mg/kg/injection, schedule: Q01DX005 (ip), vehicle: saline + alcohol 95 % of control and 100 % of control | dose: 1.0 mg/kg/injection, schedule: Q01DX005 (oral), vehicle: saline 100 % of control | dose: 1.0 mg/kg/injection, schedule: Q12HX002 (ip), vehicle: saline 102 % of control | dose: 1.0 mg/kg/injection, schedule: Q12HX006 (ip), vehicle: saline 119 % of control | dose: 2.0 mg/kg/injection, schedule: Q01DX001 (ip), vehicle: saline 119 % of control and 123 % of control | dose: 2.0 mg/kg/injection, schedule: Q01DX001 (oral), vehicle: saline 101 % of control and 109 % of control and 115 % of control | dose: 2.0 mg/kg/injection, schedule: Q01DX005 (ip), vehicle: saline + alcohol 98 % of control | dose: 2.0 mg/kg/injection, schedule: Q01DX005 (oral), vehicle: saline 105 % of control | dose: 2.0 mg/kg/injection, schedule: Q12HX002 (ip), vehicle: saline 110 % of control | dose: 4.0 mg/kg/injection, schedule: Q01DX001 (ip), vehicle: saline 115 % of control | dose: 4.0 mg/kg/injection, schedule: Q01DX001 (oral), vehicle: saline 95 % of control and 101 % of control and 123 % of control | dose: 4.0 mg/kg/injection, schedule: Q12HX002 (ip), vehicle: saline 101 % of control | dose: 8.0 mg/kg/injection, schedule: Q01DX001 (oral), vehicle: saline 95 % of control and 96 % of control and 108 % of control | dose: 16.0 mg/kg/injection, schedule: Q01DX001 (oral), vehicle: saline 105 % of control

CC(=O)OCC1OC(n2cnc3c(=S)nc[nH]c32)C(OC(C)=O)C1OC(C)=O (stereo not given)
inactive: dose: 50.0 mg/kg/injection, schedule: Q01DX005 (ip), vehicle: suspension in saline 100 % of control | dose: 100.0 mg/kg/injection, schedule: Q01DX005 (ip), vehicle: suspension in saline 111 % of control | dose: 200.0 mg/kg/injection, schedule: Q01DX005 (ip), vehicle: suspension in saline 108 % of control

O=C1C(=O)c2ccccc2C(O)=C1CC=C(Cl)Cl
inactive: dose: 10.0 mg/kg/injection, schedule: Q01DX005 (ip), vehicle: Klucel (hydroxypropylcellulose) (HPC) 100 % of control and 103 % of control | dose: 20.0 mg/kg/injection, schedule: Q01DX005 (ip), vehicle: Klucel (hydroxypropylcellulose) (HPC) 96 % of control and 98 % of control | dose: 40.0 mg/kg/injection, schedule: Q01DX005 (ip), vehicle: Klucel (hydroxypropylcellulose) (HPC) 103 % of control and 89 % of control | dose: 80.0 mg/kg/injection, schedule: Q01DX005 (ip), vehicle: Klucel (hydroxypropylcellulose) (HPC) 96 % of control and 103 % of control
